Numbers after ± are expanded uncertainties.
Experiment: xn = mol fraction of the nth substance listed
Conditions: 102 kPa, Liquid; for speed of sound: Frequency=3 MHz, Single path-length method; for mass density: Vibrating tube method; for viscosity: Concentric cylinders viscometry

CCCCCCCC1CCCCC1 [heptylcyclohexane] + CCCCCCCCCCCC
Conditions	mass density [kg/m3]	speed of sound [m/s]	viscosity [mPa·s]
288.15 K, x1 = 0.1002	758.6 ± 0.71	1324.4 ± 0.8	–
288.15 K, x1 = 0.201	764.82 ± 0.71	1331.8 ± 0.8	–
288.15 K, x1 = 0.3	771.01 ± 0.71	1339.3 ± 0.8	–
288.15 K, x1 = 0.3998	777.16 ± 0.71	1346.8 ± 0.8	–
288.15 K, x1 = 0.5002	783.44 ± 0.71	1354.4 ± 0.8	–
288.15 K, x1 = 0.5999	789.63 ± 0.71	1362 ± 0.8	–
288.15 K, x1 = 0.6998	795.81 ± 0.71	1369.8 ± 0.8	–
288.15 K, x1 = 0.8001	802.09 ± 0.71	1377.6 ± 0.9	–
288.15 K, x1 = 0.8998	808.24 ± 0.71	1385.6 ± 0.9	–
288.15 K, x1 = 1	814.51 ± 0.71	1393.6 ± 0.9	–
293.15 K, x1 = 0.1002	754.98 ± 0.71	1304.9 ± 0.8	1.57 ± 0.02
293.15 K, x1 = 0.201	761.22 ± 0.71	1312.4 ± 0.8	1.67 ± 0.02
293.15 K, x1 = 0.3	767.42 ± 0.71	1319.9 ± 0.8	1.76 ± 0.02
293.15 K, x1 = 0.3998	773.59 ± 0.71	1327.3 ± 0.8	1.87 ± 0.02
293.15 K, x1 = 0.5002	779.88 ± 0.71	1335.1 ± 0.8	1.99 ± 0.02
293.15 K, x1 = 0.5999	786.08 ± 0.71	1342.8 ± 0.8	2.12 ± 0.02
293.15 K, x1 = 0.6998	792.27 ± 0.71	1350.4 ± 0.8	2.26 ± 0.02
293.15 K, x1 = 0.8001	798.57 ± 0.71	1358.3 ± 0.9	2.42 ± 0.02
293.15 K, x1 = 0.8998	804.73 ± 0.71	1366.2 ± 0.9	2.6 ± 0.02
293.15 K, x1 = 1	811 ± 0.71	1374.2 ± 0.9	2.8 ± 0.02
298.15 K, x1 = 0.1002	751.36 ± 0.71	1285.5 ± 0.8	–
298.15 K, x1 = 0.201	757.61 ± 0.71	1293.1 ± 0.8	–
298.15 K, x1 = 0.3	763.84 ± 0.71	1300.8 ± 0.8	–
298.15 K, x1 = 0.3998	770.01 ± 0.71	1308 ± 0.8	–
298.15 K, x1 = 0.5002	776.32 ± 0.71	1316 ± 0.8	–
298.15 K, x1 = 0.5999	782.53 ± 0.71	1323.6 ± 0.8	–
298.15 K, x1 = 0.6998	788.73 ± 0.71	1331.1 ± 0.8	–
298.15 K, x1 = 0.8001	795.04 ± 0.71	1339.3 ± 0.9	–
298.15 K, x1 = 0.8998	801.21 ± 0.71	1346.9 ± 0.9	–
298.15 K, x1 = 1	807.49 ± 0.71	1355.1 ± 0.9	–
303.15 K, x1 = 0.1002	747.74 ± 0.71	1266.3 ± 0.8	1.33 ± 0.02
303.15 K, x1 = 0.201	754.01 ± 0.71	1273.9 ± 0.8	1.41 ± 0.02
303.15 K, x1 = 0.3	760.25 ± 0.71	1281.8 ± 0.8	1.48 ± 0.02
303.15 K, x1 = 0.3998	766.42 ± 0.71	1288.8 ± 0.8	1.57 ± 0.02
303.15 K, x1 = 0.5002	772.75 ± 0.71	1297 ± 0.8	1.66 ± 0.02
303.15 K, x1 = 0.5999	778.98 ± 0.71	1304.7 ± 0.8	1.74 ± 0.02
303.15 K, x1 = 0.6998	785.18 ± 0.71	1312.1 ± 0.8	1.85 ± 0.02
303.15 K, x1 = 0.8001	791.51 ± 0.71	1320.3 ± 0.9	1.97 ± 0.02
303.15 K, x1 = 0.8998	797.69 ± 0.71	1327.9 ± 0.9	2.11 ± 0.02
303.15 K, x1 = 1	803.98 ± 0.71	1336.1 ± 0.9	2.25 ± 0.02
313.15 K, x1 = 0.1002	740.48 ± 0.71	1228.4 ± 0.8	1.13 ± 0.02
313.15 K, x1 = 0.201	746.79 ± 0.71	1236.2 ± 0.8	1.19 ± 0.02
313.15 K, x1 = 0.3	753.05 ± 0.71	1244.2 ± 0.8	1.25 ± 0.02
313.15 K, x1 = 0.3998	759.25 ± 0.71	1251.2 ± 0.8	1.32 ± 0.02
313.15 K, x1 = 0.5002	765.6 ± 0.71	1259.6 ± 0.8	1.39 ± 0.02
313.15 K, x1 = 0.5999	771.86 ± 0.71	1267.3 ± 0.8	1.47 ± 0.02
313.15 K, x1 = 0.6998	778.09 ± 0.71	1274.6 ± 0.8	1.54 ± 0.02
313.15 K, x1 = 0.8001	784.43 ± 0.71	1283 ± 0.9	1.63 ± 0.02
313.15 K, x1 = 0.8998	790.64 ± 0.71	1290.5 ± 0.9	1.73 ± 0.02
313.15 K, x1 = 1	796.95 ± 0.71	1298.8 ± 0.9	1.85 ± 0.02
323.15 K, x1 = 0.1002	733.2 ± 0.71	1191.3 ± 0.8	0.976 ± 0.021
323.15 K, x1 = 0.201	739.54 ± 0.71	1199.2 ± 0.8	1.02 ± 0.02
323.15 K, x1 = 0.3	745.82 ± 0.71	1207.3 ± 0.8	1.08 ± 0.02
323.15 K, x1 = 0.3998	752.06 ± 0.71	1214.3 ± 0.8	1.13 ± 0.02
323.15 K, x1 = 0.5002	758.43 ± 0.71	1222.8 ± 0.8	1.19 ± 0.02
323.15 K, x1 = 0.5999	764.71 ± 0.71	1230.6 ± 0.8	1.25 ± 0.02
323.15 K, x1 = 0.6998	770.98 ± 0.71	1238 ± 0.8	1.32 ± 0.02
323.15 K, x1 = 0.8001	777.34 ± 0.71	1246.3 ± 0.9	1.38 ± 0.02
323.15 K, x1 = 0.8998	783.57 ± 0.71	1253.9 ± 0.9	1.45 ± 0.02
323.15 K, x1 = 1	789.91 ± 0.71	1262.2 ± 0.9	1.55 ± 0.02
333.15 K, x1 = 0.1002	725.89 ± 0.71	1155.3 ± 0.8	0.851 ± 0.021
333.15 K, x1 = 0.201	732.26 ± 0.71	1163.2 ± 0.8	0.891 ± 0.021
333.15 K, x1 = 0.3	738.56 ± 0.71	1171.2 ± 0.8	0.933 ± 0.021
333.15 K, x1 = 0.3998	744.84 ± 0.71	1178.5 ± 0.8	0.977 ± 0.021
333.15 K, x1 = 0.5002	751.23 ± 0.71	1186.8 ± 0.8	1.03 ± 0.02
333.15 K, x1 = 0.5999	757.54 ± 0.71	1194.6 ± 0.8	1.08 ± 0.02
333.15 K, x1 = 0.6998	763.84 ± 0.71	1202.4 ± 0.8	1.14 ± 0.02
333.15 K, x1 = 0.8001	770.22 ± 0.71	1210.5 ± 0.9	1.18 ± 0.02
333.15 K, x1 = 0.8998	776.49 ± 0.71	1218.5 ± 0.9	1.23 ± 0.02
333.15 K, x1 = 1	782.85 ± 0.71	1226.7 ± 0.9	1.31 ± 0.02

— the NIST ThermoML archive (doi:10.1021/acs.jced.8b01135)
